Source: US20160024203A1, “METHODS OF PRODUCING ANTIBODIES IN YEAST” (BRISTOL-MYERS SQUIBB COMPANY, priority 2013, published 2016)

What was measured:
[1] = system: suspended S. cerevisiae cells; settings: 5.7 g/L hydroxyurea; cited from earlier work
P. pastoris = test: Effects of hydroxyurea on cell growth and antibody productivity in P. pastoris fermentation (Run 01MAY11); assay type: cell-based, Pichia pastoris; settings: for Sup Titer (Normalized): anti-IL-6 antibody supernatant titer; for Sup Titer (Normalized) / WB Titer (Normalized): lots T5, T6 and T10 + hydroxyurea 2.6-2.8 g/L; for WCW: lots T5, T6 and T10 + hydroxyurea 2.6-2.8 g/L added 5 hours after feed start, triplicate bioreactors; for WB Titer (Normalized): whole broth titer = supernatant titer*(1-WCW/1000)
Protocol: The glucose and ethanol were measured by YSI 2700 (YSI Incorporated, Yellow Springs, Ohio), O2 and CO2 of the exhaust line were measured by Questor GP Process Mass Spectrometer (ABB Extrel, Pittsburgh, Pa.) and the RQ value was calculated using below Equation [1]. The wet cell weight (WCW) was measured by centrifuging one (1) milliliter (mL) fermentation broth at 13,200 rpm for 10 minutes, weighing pellet, and calculated ratio of pellets weight (g) over volume (mL). The supernatant titer (g/L) was measured by the HPLC method and the whole broth (WB) titer was then calculated by below Equation[2]. Non reduced and reducing SDS-PAGE gels are performed following standard method.
WB_Titer=Supernatant_Titer*(1−WCW/1000)
The treatment cultures were operated the same way plus adding hydroxyurea 5 hours after feed start.

NC(=O)NO [Hydroxyurea]
reduction of cell mass [1]: 50% | reduction of total polysaccharide content [1]: 65% | synthesis of protein and RNA [1]: not adversely affected | average whole broth titer (P. pastoris; 90 hours run time, three hydroxyurea treatment lots, three control lots 59.8): 75 normalized units | WCW reached/maintained by hydroxyurea treatment lots (P. pastoris; after peak cell density at 30-40 hours, control lots ~400 g/Kg, FIG. 8): ~450 g/kg | Sup Titer (Normalized) (P. pastoris; age 59 h): 83.9 ± 2.2 Normalized | WCW (P. pastoris; age 59 h): 437 ± 17 g/kg | WB Titer (Normalized) (P. pastoris; age 59 h): 47.2 ± 1.8 Normalized | Sup Titer (Normalized) (P. pastoris; age 90 h): 123.3 ± 5.8 Normalized | WCW (P. pastoris; age 90 h): 392 ± 20 g/kg | WB Titer (Normalized) (P. pastoris; age 90 h): 75.0 ± 2.7 Normalized
